The source made the active and inactive calls. No cut-off for these calls is given here. *1 amine or outer side, *2 acyl side, *3 side chain or, on linkers, in order; H or OH if unused. Where a SMILES comes first, the peptide text is derived from it. Bridges are numbered along the chain shown (N, C = ends). Roman numbers before positions name the chains, in order. [ ]: non-standard residue; d: D form. The star is where a group is joined. Hexanoyl(6-succinimido-3yl) = O=C1CC([*:1])C(=O)N1CCCCCC(=O)[*:2]; Dolaproine = CO[C@@H]([C@@H]1CCCN1)[C@@H](C)C(=O)O; Dil = CC[C@H](C)[C@H](NC)[C@@H](CC(=O)O)OC; PABC = O=C(OCc1ccc(N[*:1])cc1)[*:2]; X1 = C[C@@H](N*)[C@@H](O)c1ccccc1; Cit = NC(=O)NCCC[C@H](N)C(=O)O; NMeV = CN[C@H](C(=O)O)C(C)C
Key:
[1] = Toxicity in male BALB/c nude mouse xenografted with KK-LC-1-positive human MKN-45 cells assessed as effect on kidney function at 1 mg/kg, iv administered twice a week for 3 weeks; assay type: organism-based; conditions: in vivo, 504 h
[2] = Toxicity in male BALB/c nude mouse xenografted with KK-LC-1-positive human MKN-45 cells assessed as effect on kidney function at 0.3 mg/kg, iv administered twice a week for 3 weeks; assay type: organism-based; conditions: in vivo, 504 h
[3] = Toxicity in male BALB/c nude mouse xenografted with KK-LC-1-positive human MKN-45 cells assessed as effect on liver function at 1 mg/kg, iv administered twice a week for 3 weeks; assay type: organism-based; conditions: in vivo, 504 h
[4] = test system: NUGC-4; assay: Induction of mitotic arrest in KK-LC-1-positive human NUGC-4 cells xenografted in nude mouse assessed as number of pHH3-positive nuclei in tumor at 4 nmol, iv administered as single dose and measured after 24 hrs by pHH3 immunohistochemical staining method relative to control; assay type: functional
[5] = test system: NUGC-4; assay: Antitumor activity against KK-LC-1-positive human NUGC-4 cells xenografted in male BALB/c nude mouse assessed as reduction in tumor burden at 0.3 mg/kg, iv administered once a week for 3 weeks followed by exposure to 2 Gy gamma irradiation for 2 consecutive days once a week for 3 weeks; assay type: functional, organism-based
[6] = molecular target: T1, Kita-kyushu lung cancer antigen 1 (Homo sapiens) (UniProt Q5H943); assay: Binding affinity to recombinant KK-LC-1 (unknown origin) using FITC-labeled compound at 0.1 to 1000 uM incubated for 2 hrs and measured by FLISA assay; conditions: dose 0.1-1000 µM
T1 sequence (whole entry): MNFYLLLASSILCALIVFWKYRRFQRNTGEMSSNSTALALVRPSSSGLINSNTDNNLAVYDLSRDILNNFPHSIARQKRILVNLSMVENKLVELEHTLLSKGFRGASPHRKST

[7] = test system: MKN-45; assay: Antitumor activity against KK-LC-1-positive human MKN-45 cells xenografted in male BALB/c nude mouse assessed as induction of tumor regression at 2 mg/kg, iv administered twice a week for 3 weeks; assay type: functional, organism-based
[8] = test system: NUGC-4; assay: Cytotoxicity against KK-LC-1-positive human NUGC-4 cells incubated for 72 hrs by CCK-8 assay; assay type: functional, cell-based; conditions: NUGC-4, 72 h
[9] = Drug uptake in KK-LC-1-positive human NUGC-4 cells using FITC-labeled compound at 100 uM incubated for 10 to 70 mins and assessed as drug internalization measured by DAPI staining method; assay type: ADME, cell-based; conditions: nugc-4, 100 µM, time 10-70 min
[10] = test system: MKN-45; assay: Cell cycle arrest in KK-LC-1-positive human MKN-45 cells assessed as increase accumulation at G2/M phase at 100 nM measured after 0 to 48 hrs by propidium iodide staining based flow cytometric analysis; assay type: functional; conditions: time 0-48 hrs, TDE = time-dependent effect
[11] = Toxicity in male BALB/c nude mouse xenografted with KK-LC-1-positive human NUGC-4 cells assessed as median survival time at 0.3 mg/kg, iv administered once a week for 3 weeks followed by exposure to 2 Gy gamma irradiation for 2 consecutive days once a week for 3 weeks measured after 47 days; assay type: organism-based; conditions: in vivo, 504 h
[12] = test system: MKN-45; assay: Cytotoxicity against KK-LC-1-positive human MKN-45 cells incubated for 72 hrs by CCK-8 assay; assay type: functional, cell-based; conditions: MKN-45, 72 h
[13] = Toxicity in male BALB/c nude mouse xenografted with KK-LC-1-positive human NUGC-4 cells assessed as effect on body weight at 0.3 mg/kg, iv administered once a week for 3 weeks followed by exposure to 2 Gy gamma irradiation for 2 consecutive days once a week for 3 weeks; assay type: organism-based; conditions: in vivo, 504 h
[14] = test system: MKN-45; assay: Antitumor activity against KK-LC-1-positive human MKN-45 cells xenografted in male BALB/c nude mouse assessed as induction of tumor regression at 1 mg/kg, iv administered twice a week for 3 weeks; assay type: functional, organism-based
[15] = test system: NUGC-4; assay: Cell cycle arrest in KK-LC-1-positive human NUGC-4 cells assessed as accumulation at G2/M phase at 20 nM measured after 24 hrs by propidium iodide staining based flow cytometric analysis (reference value: 21.5 +/- 0.7 %); assay type: functional
[16] = Toxicity in male BALB/c nude mouse xenografted with KK-LC-1-positive human MKN-45 cells administered intravenously twice a week for 3 weeks; conditions: in vivo, route iv
[17] = test system: NUGC-4; assay: Induction of apoptosis in KK-LC-1-positive human NUGC-4 cells at 100 nM incubated for 24 hrs followed by exposure to 2 Gy gamma irradiation by AnnexinV/PI-staining based flow cytometry; assay type: functional, cell-based
[18] = Toxicity in male BALB/c nude mouse xenografted with KK-LC-1-positive human MKN-45 cells assessed as effect on kidney function at 2 mg/kg, iv administered twice a week for 3 weeks; assay type: organism-based; conditions: in vivo, 504 h
[19] = test system: MKN-45; assay: Antitumor activity against KK-LC-1-positive human MKN-45 cells xenografted in male BALB/c nude mouse assessed as induction of tumor regression at 0.3 mg/kg, iv administered twice a week for 3 weeks; assay type: functional, organism-based
[20] = Toxicity in male BALB/c nude mouse xenografted with KK-LC-1-positive human NUGC-4 cells assessed as median survival time at 0.3 mg/kg, iv administered once a week for 3 weeks; assay type: organism-based; conditions: in vivo, 504 h
[21] = Stability in human plasma assessed as compound remaining at 500 uM measured after 8 hrs by HPLC analysis; assay type: ADME, cell-free; conditions: read-out: Stability
[22] = Toxicity in male BALB/c nude mouse xenografted with KK-LC-1-positive human MKN-45 cells assessed as body weight loss at 3 mg/kg, iv administered twice a week for 3 weeks; assay type: organism-based; conditions: in vivo, 504 h
[23] = molecular target: T1, Kita-kyushu lung cancer antigen 1 (Homo sapiens); assay: Binding affinity to KK-LC-1 in KK-LC-1-positive human MKN-45 cells using FITC-labeled compound at 1 to 1000 uM incubated for 30 mins and measured by flow cytometry assay; assay type: cell-based; conditions: dose 1-1000 µM
[24] = Toxicity in male BALB/c nude mouse xenografted with KK-LC-1-positive human MKN-45 cells assessed as effect on liver function at 2 mg/kg, iv administered twice a week for 3 weeks; assay type: organism-based; conditions: in vivo, 504 h
[25] = test system: NUGC-4; assay: Cell cycle arrest in KK-LC-1-positive human NUGC-4 cells assessed as accumulation at G2/M phase at 100 nM measured after 24 hrs by propidium iodide staining based flow cytometric analysis (reference value: 21.5 +/- 0.7 %); assay type: functional

SMILES: CC[C@H](C)[C@@H]([C@@H](CC(=O)N1CCC[C@H]1[C@H](OC)[C@@H](C)C(=O)N[C@H](C)[C@@H](O)c1ccccc1)OC)N(C)C(=O)[C@@H](NC(=O)[C@@H](NC(=O)[C@H](C(C)C)N(C)C(=O)OCc1ccc(NC(=O)[C@H](CCCNC(N)=O)NC(=O)[C@@H](NC(=O)CCCCCN2C(=O)CC(SC[C@H](N)C(=O)N[C@H]3CSSC[C@@H](C(=O)O)NC(=O)[C@H]([C@@H](C)O)NC(=O)[C@H]([C@@H](C)O)NC(=O)[C@H](CC(C)C)NC(=O)[C@H](C)NC(=O)[C@H]([C@@H](C)O)NC(=O)[C@H](CC(N)=O)NC(=O)[C@H](CCCCN)NC3=O)C2=O)C(C)C)cc1)C(C)C)C(C)C (stereo not given in full) (I: H-CCKNTALTTC-OH / II: V[Cit][PABC][NMeV]VV[Dil][Dolaproine]-X1; linker I:1-II:N via Hexanoyl(6-succinimido-3yl); disulfide I:2-I:10)
- Activity [1]: Non-Toxic
- Activity [2]: Non-Toxic
- Activity [3]: Non-Toxic
- Activity [4]: 87
- Activity [5]: Active
- Activity [6]: Active
- Activity [7]: Active
- IC50 [8]: 3.87 nM
- Drug uptake [9]: Active
- Activity [10]: Tde
- MST [11]: 58 days
- IC50 [12]: 5.26 nM
- Activity [13]: Non-Toxic
- Activity [14]: Active
- Activity [15]: 30.9%
- MTD at 504 h [16]: 2 mg/kg
- Activity [17]: Active
- Activity [18]: Non-Toxic
- Activity [19]: Active
- MST [20]: 40 days
- remaining at 8 h, 500 µM [21]: 42.5%
- Activity [22]: Toxic
- Activity [23]: Active
- Activity [24]: Non-Toxic
- Activity [25]: 67.4%
